According to PubChem BioAssay AID270 (DTP/NCI, 2004):
Several values for one entry are separate records, joined by “and”; a condition that tells them apart may be missing. Identical values can stand only once. Records with an inconclusive call do not appear.

System: BDF1 mice, s.c. Lewis lung carcinoma, T/C %
Assay: NCI In Vivo Anticancer Drug Screen. Data for tumor model Lewis Lung Carcinoma (subcutaneous) in B6D2F1 (BDF1) mice
Outline: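 Readout: survival or tumor size, expressed as treated (T) over vehicle control (C). Transplantable tumor implanted in mice; compound given to the treated group.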

`O=P1(N(CCCl)CCCl)NCCCO1` (stereo not drawn) was tested, and the T/C (endpoint: mean survival time, dose: 100.0 mg/kg/injection, schedule: Q08DX002 (ip), vehicle: saline, higher = longer survival) was 188 % of control, the T/C (endpoint: mean survival time, dose: 300.0 mg/kg/injection, schedule: Q08DX002 (ip), vehicle: saline, higher = longer survival) was 117 % of control and the T/C (endpoint: mean tumor weight (est.), dose: 65.0 mg/kg/injection, schedule: Q01DX009 (ip), vehicle: saline, higher = larger tumour) was 3 % of control. The T/C (endpoint: mean tumor weight (est.), dose: 108.0 mg/kg/injection, schedule: Q01DX001 (ip), vehicle: saline, higher = larger tumour) was 19 % of control and 37 % of control, the T/C (endpoint: mean tumor weight (est.), dose: 300.0 mg/kg/injection, schedule: Q01DX001 (ip), vehicle: saline, higher = larger tumour) was 15 % of control and the T/C (endpoint: mean tumor weight, dose: 6.25 mg/kg/injection, schedule: Q01DX011 (ip), vehicle: saline, higher = larger tumour) was 70 % of control. The T/C (endpoint: mean tumor weight, dose: 12.0 mg/kg/injection, schedule: Q01DX011 (ip), vehicle: saline, higher = larger tumour) was 55 % of control, the T/C (endpoint: mean tumor weight, dose: 12.5 mg/kg/injection, schedule: Q01DX011 (ip), vehicle: saline, higher = larger tumour) was 74 % of control and the T/C (endpoint: mean tumor weight, dose: 17.0 mg/kg/injection, schedule: Q01DX011 (ip), vehicle: saline, higher = larger tumour) was 43 % of control. The T/C (endpoint: mean tumor weight, dose: 22.5 mg/kg/injection, schedule: Q01DX011 (ip), vehicle: saline, higher = larger tumour) was 19 % of control and 40 % of control, the T/C (endpoint: mean tumor weight, dose: 25.0 mg/kg/injection, schedule: Q01DX011 (ip), vehicle: saline, higher = larger tumour) was 3 % of control and 5 % of control and 12 % of control and the T/C (endpoint: mean tumor weight, dose: 45.0 mg/kg/injection, schedule: Q01DX011 (ip), vehicle: saline, higher = larger tumour) was 2 % of control and 11 % of control. For the same compound, the T/C (endpoint: median survival time, dose: 5.0 mg/kg/injection, schedule: Q01DX011 (ip), vehicle: saline, higher = longer survival) was 107 % of control, the T/C (endpoint: median survival time, dose: 10.0 mg/kg/injection, schedule: Q01DX001 (ip), vehicle: saline, higher = longer survival) was 100 % of control and the T/C (endpoint: median survival time, dose: 10.0 mg/kg/injection, schedule: Q01DX005 (ip), vehicle: saline, higher = longer survival) was 153 % of control and 160 % of control. The T/C (endpoint: median survival time, dose: 10.0 mg/kg/injection, schedule: Q01DX009 (ip), vehicle: saline, higher = longer survival) was 90 % of control, the T/C (endpoint: median survival time, dose: 10.0 mg/kg/injection, schedule: Q01DX011 (ip), vehicle: saline, higher = longer survival) was 89 % of control and the T/C (endpoint: median survival time, dose: 20.0 mg/kg/injection, schedule: Q01DX001 (ip), vehicle: saline, higher = longer survival) was 113 % of control. For the same compound, the T/C (endpoint: median survival time, dose: 20.0 mg/kg/injection, schedule: Q01DX005 (ip), vehicle: saline, higher = longer survival) was 113 % of control, the T/C (endpoint: median survival time, dose: 20.0 mg/kg/injection, schedule: Q01DX009 (ip), vehicle: saline, higher = longer survival) was 104 % of control and the T/C (endpoint: median survival time, dose: 20.0 mg/kg/injection, schedule: Q01DX011 (ip), vehicle: saline, higher = longer survival) was 89 % of control. The T/C (endpoint: median survival time, dose: 23.0 mg/kg/injection, schedule: Q01DX009 (ip), vehicle: saline, higher = longer survival) was 121 % of control and 124 % of control, the T/C (endpoint: median survival time, dose: 25.0 mg/kg/injection, schedule: Q01DX001 (ip), vehicle: saline, higher = longer survival) was 98 % of control and 101 % of control and the T/C (endpoint: median survival time, dose: 25.0 mg/kg/injection, schedule: Q01DX004 (ip), vehicle: saline, higher = longer survival) was 154 % of control. For the same compound, the T/C (endpoint: median survival time, dose: 26.0 mg/kg/injection, schedule: Q01DX001 (ip), vehicle: saline, higher = longer survival) was 94 % of control and 95 % of control, the T/C (endpoint: median survival time, dose: 39.0 mg/kg/injection, schedule: Q01DX009 (ip), vehicle: saline, higher = longer survival) was 91 % of control and the T/C (endpoint: median survival time, dose: 40.0 mg/kg/injection, schedule: Q01DX001 (ip), vehicle: saline, higher = longer survival) was 88 % of control. For the same compound, the T/C (endpoint: median survival time, dose: 40.0 mg/kg/injection, schedule: Q01DX009 (ip), vehicle: saline, higher = longer survival) was 222 % of control, the T/C (endpoint: median survival time, dose: 43.0 mg/kg/injection, schedule: Q01DX001 (ip), vehicle: saline, higher = longer survival) was 112 % of control and 117 % of control and the T/C (endpoint: median survival time, dose: 44.0 mg/kg/injection, schedule: Q01DX005 (ip), vehicle: saline, higher = longer survival) was 184 % of control and 233 % of control. For the same compound, the T/C (endpoint: median survival time, dose: 44.4 mg/kg/injection, schedule: Q04DX003 (ip), vehicle: saline, higher = longer survival) was 105 % of control and 224 % of control, the T/C (endpoint: median survival time, dose: 50.0 mg/kg/injection, schedule: Q01DX001 (ip), vehicle: saline, higher = longer survival) was 112 % of control and 117 % of control and the T/C (endpoint: median survival time, dose: 50.0 mg/kg/injection, schedule: Q01DX001 (ip), vehicle: water, higher = longer survival) was 118 % of control. For the same compound, the T/C (endpoint: median survival time, dose: 50.0 mg/kg/injection, schedule: Q01DX004 (ip), vehicle: saline, higher = longer survival) was 225 % of control, the T/C (endpoint: median survival time, dose: 50.0 mg/kg/injection, schedule: Q01DX005 (ip), vehicle: saline, higher = longer survival) was 158 % of control and the T/C (endpoint: median survival time, dose: 50.0 mg/kg/injection, schedule: Q04DX003 (sc), vehicle: saline, higher = longer survival) was 208 % of control and 210 % of control. For the same compound, the T/C (endpoint: median survival time, dose: 66.7 mg/kg/injection, schedule: Q04DX003 (ip), vehicle: saline, higher = longer survival) was 167 % of control and 233 % of control, the T/C (endpoint: median survival time, dose: 67.0 mg/kg/injection, schedule: Q01DX005 (ip), vehicle: saline, higher = longer survival) was 220 % of control and the T/C (endpoint: median survival time, dose: 70.0 mg/kg/injection, schedule: Q01DX001 (ip), vehicle: saline, higher = longer survival) was 108 % of control and 112 % of control. For the same compound, the T/C (endpoint: median survival time, dose: 72.0 mg/kg/injection, schedule: Q01DX001 (ip), vehicle: saline, higher = longer survival) was 117 % of control, the T/C (endpoint: median survival time, dose: 80.0 mg/kg/injection, schedule: Q01DX009 (ip), vehicle: saline, higher = longer survival) was 100 % of control and the T/C (endpoint: median survival time, dose: 100.0 mg/kg/injection, schedule: Q01DX001 (ip), vehicle: water, higher = longer survival) was 190 % of control. The T/C (endpoint: median survival time, dose: 100.0 mg/kg/injection, schedule: Q01DX005 (ip), vehicle: saline, higher = longer survival) was 207 % of control, the T/C (endpoint: median survival time, dose: 100.0 mg/kg/injection, schedule: Q04DX003 (ip), vehicle: saline, higher = longer survival) was 192 % of control and 233 % of control and the T/C (endpoint: median survival time, dose: 100.0 mg/kg/injection, schedule: Q08DX002 (ip), vehicle: saline, higher = longer survival) was 208 % of control. The T/C (endpoint: median survival time, dose: 100.0 mg/kg/injection, schedule: Q11DX002 (ip), vehicle: saline, higher = longer survival) was 163 % of control, the T/C (endpoint: median survival time, dose: 150.0 mg/kg/injection, schedule: Q04DX003 (ip), vehicle: saline, higher = longer survival) was 233 % of control and the T/C (endpoint: median survival time, dose: 150.0 mg/kg/injection, schedule: Q07DX002 (ip), vehicle: saline, higher = longer survival) was 233 % of control. The T/C (endpoint: median survival time, dose: 150.0 mg/kg/injection, schedule: Q07DX004 (ip), vehicle: saline, higher = longer survival) was 221 % of control, the T/C (endpoint: median survival time, dose: 150.0 mg/kg/injection, schedule: Q11DX002 (ip), vehicle: saline, higher = longer survival) was 150 % of control and 165 % of control and the T/C (endpoint: median survival time, dose: 200.0 mg/kg/injection, schedule: Q04DX003 (sc), vehicle: saline, higher = longer survival) was 85 % of control. For the same compound, the T/C (endpoint: median survival time, dose: 225.0 mg/kg/injection, schedule: Q01DX001 (ip), vehicle: saline, higher = longer survival) was 153 % of control, the T/C (endpoint: median survival time, dose: 225.0 mg/kg/injection, schedule: Q07DX002 (ip), vehicle: saline, higher = longer survival) was 173 % of control and the T/C (endpoint: median survival time, dose: 225.0 mg/kg/injection, schedule: Q09DX002 (ip), vehicle: saline, higher = longer survival) was 183 % of control. The T/C (endpoint: median survival time, dose: 225.0 mg/kg/injection, schedule: Q11DX002 (ip), vehicle: saline, higher = longer survival) was 166 % of control and 189 % of control, the T/C (endpoint: median survival time, dose: 230.0 mg/kg/injection, schedule: Q01DX001 (ip), vehicle: saline, higher = longer survival) was 154 % of control and the T/C (endpoint: median survival time, dose: 300.0 mg/kg/injection, schedule: Q07DX002 (ip), vehicle: saline, higher = longer survival) was 173 % of control. For the same compound, the T/C (endpoint: median survival time, dose: 300.0 mg/kg/injection, schedule: Q08DX002 (ip), vehicle: saline, higher = longer survival) was 100 % of control, the T/C (endpoint: median survival time, dose: 333.0 mg/kg/injection, schedule: Q01DX001 (ip), vehicle: saline, higher = longer survival) was 157 % of control and 193 % of control and the T/C (endpoint: median survival time, dose: 500.0 mg/kg/injection, schedule: Q01DX001 (ip), vehicle: saline, higher = longer survival) was 72 % of control. For the same compound, the T/C (endpoint: median survival time, dose: 556.0 mg/kg/injection, schedule: Q01DX001 (ip), vehicle: saline, higher = longer survival) was 47 % of control, the T/C (endpoint: median tumor weight (est.), dose: 25.0 mg/kg/injection, schedule: Q01DX009 (ip), vehicle: saline, higher = larger tumour) was 50 % of control and the T/C (endpoint: median tumor weight (est.), dose: 50.0 mg/kg/injection, schedule: Q01DX009 (ip), vehicle: saline, higher = larger tumour) was 11 % of control and 19 % of control. For the same compound, the T/C (endpoint: median tumor weight (est.), dose: 75.0 mg/kg/injection, schedule: Q01DX001 (ip), vehicle: saline, higher = larger tumour) was 76 % of control, the T/C (endpoint: median tumor weight (est.), dose: 103.0 mg/kg/injection, schedule: Q01DX001 (ip), vehicle: saline, higher = larger tumour) was 38 % of control and the T/C (endpoint: median tumor weight (est.), dose: 150.0 mg/kg/injection, schedule: Q01DX001 (ip), vehicle: saline, higher = larger tumour) was 34 % of control. For the same compound, the T/C (endpoint: median tumor weight (est.), dose: 209.0 mg/kg/injection, schedule: Q01DX001 (ip), vehicle: saline, higher = larger tumour) was 16 % of control, the T/C (endpoint: median tumor weight (est.), dose: 300.0 mg/kg/injection, schedule: Q01DX001 (ip), vehicle: saline, higher = larger tumour) was 2 % of control and the T/C (endpoint: median tumor weight (est.), dose: 312.0 mg/kg/injection, schedule: Q01DX001 (ip), vehicle: saline, higher = larger tumour) was 7 % of control.
In the case of `Cc1cc2oc(=O)c3c(c2c(O)c1CN1CCCC1)CCCC3`, the T/C (endpoint: median survival time, dose: 29.0 mg/kg/injection, schedule: Q01DX009 (ip), vehicle: Klucel (hydroxypropylcellulose) (HPC), higher = longer survival) is reported as 94 % of control, the T/C (endpoint: median survival time, dose: 58.0 mg/kg/injection, schedule: Q01DX009 (ip), vehicle: Klucel (hydroxypropylcellulose) (HPC), higher = longer survival) is reported as 106 % of control and the T/C (endpoint: median survival time, dose: 116.0 mg/kg/injection, schedule: Q01DX009 (ip), vehicle: Klucel (hydroxypropylcellulose) (HPC), higher = longer survival) is reported as 106 % of control. For the same compound, the T/C (endpoint: median survival time, dose: 232.0 mg/kg/injection, schedule: Q01DX009 (ip), vehicle: Klucel (hydroxypropylcellulose) (HPC), higher = longer survival) was 94 % of control.
